Assay results taken from patent publication US11591604B2, “Gene expression in Bacteroides” (Massachusetts Institute of Technology, priority 2015, dated 2023).

The substances below were run on NanoLuc (assay: NanoLuc luciferase reporter expression from constitutive promoters and RBSs integrated with pNBU2). Conditions: RBS combined with promoter PBT1311, NanoLuc reporter, three biological replicates.
Assay type: cell-based, B. thetaiotaomicron

Row | Substance | Average Luminescence (RLU/CFU)
1 | C18: RBS, SEQ ID NO: 47 (DNA TCCCGCATTTTAAAATAAAATAAATTATTGTTTTACTTAAACGAAT; chemistry not fully specified) | 0.01851
2 | C19: RBS, SEQ ID NO: 48 (DNA TCCCGCATTTTAAAATAAAATAAATTATTGCTTTAGTTAAACGAAT; chemistry not fully specified) | 0.01835
3 | C20: RBS, SEQ ID NO: 51 (DNA TCCCGCATTTTAAAATAAAATAAATTATTGTTTTAGTTAAACGAAT; chemistry not fully specified) | 0.01758
4 | C21: RBS, SEQ ID NO: 54 (DNA TCCCGCATTTTAAAATAAAATAAATTATTGGTTTAATTAAACGAAT; chemistry not fully specified) | 0.01602
5 | C22: RBS, SEQ ID NO: 57 (DNA TCCCGCATTTTAAAATAAAATAAATTATTGTTTTAATTAAACGAAT; chemistry not fully specified) | 0.01508
6 | C23: RBS, SEQ ID NO: 60 (DNA TCCCGCATTTTAAAATAAAATAAATTATTGATTTACTTAAACGAAT; chemistry not fully specified) | 0.01469
7 | C24: RBS, SEQ ID NO: 67 (DNA TCCCGCATTTTAAAATAAAATAAATTATTTCTTTATTTAAACGAAT; chemistry not fully specified) | 0.01287
8 | C25: RBS, SEQ ID NO: 72 (DNA TCCCGCATTTTAAAATAAAATAAATTATTATTTTACTTAAACGAAT; chemistry not fully specified) | 0.01148
9 | C26: RBS, SEQ ID NO: 75 (DNA TCCCGCATTTTAAAATAAAATAAATTATTTATTTACTTAAACGAAT; chemistry not fully specified) | 0.009775
10 | C27: RBS, SEQ ID NO: 76 (DNA TCCCGCATTTTAAAATAAAATAAATTATTTTTTTAGTTAAACGAAT; chemistry not fully specified) | 0.009752
11 | C28: RBS, SEQ ID NO: 81 (DNA TCCCGCATTTTAAAATAAAATAAATTATTCATTTATTTAAACGAAT; chemistry not fully specified) | 0.009278
12 | C29: RBS, SEQ ID NO: 86 (DNA TCCCGCATTTTAAAATAAAATAAATTATTTTTTTATTTAAACGAAT; chemistry not fully specified) | 0.008233
13 | C30: RBS, SEQ ID NO: 88 (DNA TCCCGCATTTTAAAATAAAATAAATTATTTATTTATTTAAACGAAT; chemistry not fully specified) | 0.008085
14 | C31: RBS, SEQ ID NO: 90 (DNA TCCCGCATTTTAAAATAAAATAAATTATTTATTTACTTAAACGAAT; chemistry not fully specified) | 0.007861
15 | C32: RBS, SEQ ID NO: 91 (DNA TCCCGCATTTTAAAATAAAATAAATTATTGCTTTATTTAAACGAAT; chemistry not fully specified) | 0.007717
16 | C33: RBS, SEQ ID NO: 93 (DNA TCCCGCATTTTAAAATAAAATAAATTATTAGTTTACTTAAACGAAT; chemistry not fully specified) | 0.006912
17 | C34: RBS, SEQ ID NO: 96 (DNA TCCCGCATTTTAAAATAAAATAAATTATTCTTTTACTTAAACGAAT; chemistry not fully specified) | 0.006727
18 | C35: RBS, SEQ ID NO: 99 (DNA TCCCGCATTTTAAAATAAAATAAATTATTCCTTTAATTAAACGAAT; chemistry not fully specified) | 0.005815
19 | C36: RBS, SEQ ID NO: 100 (DNA TCCCGCATTTTAAAATAAAATAAATTATTACTTTATTTAAACGAAT; chemistry not fully specified) | 0.005692
20 | C37: RBS, SEQ ID NO: 102 (DNA TCCCGCATTTTAAAATAAAATAAATTATTGGTTTAGTTAAACGAAT; chemistry not fully specified) | 0.005598

Row | Substance | Average Luminescence (RLU/CFU)
21 | C38: RBS, SEQ ID NO: 108 (DNA TCCCGCATTTTAAAATAAAATAAATTATTCTTTTATTTAAACGAAT; chemistry not fully specified) | 0.004774
22 | C39: RBS, SEQ ID NO: 109 (DNA TCCCGCATTTTAAAATAAAATAAATTATTCCTTTATTTAAACGAAT; chemistry not fully specified) | 0.004534
23 | C40: RBS, SEQ ID NO: 115 (DNA TCCCGCATTTTAAAATAAAATAAATTATTCCTTTACTTAAACGAAT; chemistry not fully specified) | 0.003759
24 | C41: RBS, SEQ ID NO: 117 (DNA TCCCGCATTTTAAAATAAAATAAATTATTGGTTTATTTAAACGAAT; chemistry not fully specified) | 0.003107
25 | C42: RBS, SEQ ID NO: 119 (DNA TCCCGCATTTTAAAATAAAATAAATTATTCTTTTAGTTAAACGAAT; chemistry not fully specified) | 0.002801
26 | C43: RBS, SEQ ID NO: 120 (DNA TCCCGCATTTTAAAATAAAATAAATTATTTCTTTAGTTAAACGAAT; chemistry not fully specified) | 0.00264
27 | C44: RBS, SEQ ID NO: 122 (DNA TCCCGCATTTTAAAATAAAATAAATTATTTGTTTACTTAAACGAAT; chemistry not fully specified) | 0.00249
28 | C45: RBS, SEQ ID NO: 124 (DNA TCCCGCATTTTAAAATAAAATAAATTATTCATTTAGTTAAACGAAT; chemistry not fully specified) | 0.0024
29 | C46: RBS, SEQ ID NO: 125 (DNA TCCCGCATTTTAAAATAAAATAAATTATTTGTTTAGTTAAACGAAT; chemistry not fully specified) | 0.001945
30 | C47: RBS, SEQ ID NO: 126 (DNA TCCCGCATTTTAAAATAAAATAAATTATTTGTTTAATTAAACGAAT; chemistry not fully specified) | 0.00189
31 | C48: RBS, SEQ ID NO: 128 (DNA TCCCGCATTTTAAAATAAAATAAATTATTCCTTTAGTTAAACGAAT; chemistry not fully specified) | 0.001758
32 | C49: RBS, SEQ ID NO: 129 (DNA TCCCGCATTTTAAAATAAAATAAATTATTGTTTTATTTAAACGAAT; chemistry not fully specified) | 0.001598
33 | C50: RBS, SEQ ID NO: 132 (DNA TCCCGCATTTTAAAATAAAATAAATTATTTGTTTATTTAAACGAAT; chemistry not fully specified) | 0.001261
34 | C51: RBS, SEQ ID NO: 136 (DNA TCCCGCATTTTAAAATAAAATAAATTATTATTTTATTTAAACGAAT; chemistry not fully specified) | 0.0006273
35 | C52: RBS, SEQ ID NO: 138 (DNA TCCCGCATTTTAAAATAAAATAAATTATTGGTTTACTTAAACGAAT; chemistry not fully specified) | 0.000163
36 | C53: RBS, SEQ ID NO: 140 (DNA TCCCGCATTTTAAAATAAAATAAATTATTCGTTTAATTAAACGAAT; chemistry not fully specified) | 7.299E-05
37 | C54: RBS, SEQ ID NO: 141 (DNA TCCCGCATTTTAAAATAAAATAAATTATTCGTTTATTTAAACGAAT; chemistry not fully specified) | 3.651E-05
38 | C55: RBS, SEQ ID NO: 142 (DNA TCCCGCATTTTAAAATAAAATAAATTATTCGTTTACTTAAACGAAT; chemistry not fully specified) | 2.628E-05
39 | C56: RBS, SEQ ID NO: 143 (DNA TCCCGCATTTTAAAATAAAATAAATTATTCGTTTAGTTAAACGAAT; chemistry not fully specified) | 2.2125E-05
40 | rpiL*: parent ribosomal protein RBS, SEQ ID NO: 39, 172, 174 (DNA TCCCGCATTTTAAAATAAAATAAATTATTTATTTAATTAAACGAAT; chemistry not fully specified) | 0.02133

Same assay, conditions: set of 8 RBSs, under control of PBT1311, NanoLuc reporter

Row | Substance | Expression Level (RLU/CFU)
41 | C33: RBS, SEQ ID NO: 93 (DNA TCCCGCATTTTAAAATAAAATAAATTATTAGTTTACTTAAACGAAT; chemistry not fully specified) | 6.91E-03
42 | C51: RBS, SEQ ID NO: 136 (DNA TCCCGCATTTTAAAATAAAATAAATTATTATTTTATTTAAACGAAT; chemistry not fully specified) | 6.27E-04
43 | C52: RBS, SEQ ID NO: 138 (DNA TCCCGCATTTTAAAATAAAATAAATTATTGGTTTACTTAAACGAAT; chemistry not fully specified) | 1.63E-04
44 | C53: RBS, SEQ ID NO: 140 (DNA TCCCGCATTTTAAAATAAAATAAATTATTCGTTTAATTAAACGAAT; chemistry not fully specified) | 7.30E-05
45 | C56: RBS, SEQ ID NO: 143 (DNA TCCCGCATTTTAAAATAAAATAAATTATTCGTTTAGTTAAACGAAT; chemistry not fully specified) | 2.21E-05
46 | rpiL*-C39: RBS, SEQ ID NO: 176; sequence and value match B39 of Table 1 (DNA TCCCGCATTTTAAAATAAAATAAATCATCTAGTTAATTAAACGAATATG; chemistry not fully specified) | 1.26E-03
47 | rpiL*: parent ribosomal protein RBS, SEQ ID NO: 39, 172, 174 (DNA TCCCGCATTTTAAAATAAAATAAATTATTTATTTAATTAAACGAAT; chemistry not fully specified) | 2.13E-02
